Results published in patent US20250345387A1, “CORONAVIRUS THERAPEUTICS AND TREATMENT METHODS” (priority 2020, published 2025).
“Also recorded” adds a separate entry of the source. Where no end group is shown, it is not given here.

Key:
[1] = molecular target: T1, recombinant human IgG Fc (Homo sapiens, UniProt P01857); experiment: Tryptophan fluorescence spectroscopy binding to human IgG Fc (negative control); conditions: increasing ligand concentrations
T1 construct: purchased R&D Systems
Description: Ligand and receptor interaction. […] Data was compiled using SoftMax and analyzed using Prism.

[2] = molecular target: T2, Tie2 receptor (Homo sapiens, UniProt Q02763); experiment: Tie2 phosphorylation ELISA in HUVEC; type: cell-based; conditions: 15 minute stimulation
T2 construct: endogenous in cells; host or cells: HUVEC; HMVEC-tert (human dermal microvascular endothelial cells immortalized with telomerase)
T2 sequence (Q02763 23-1124): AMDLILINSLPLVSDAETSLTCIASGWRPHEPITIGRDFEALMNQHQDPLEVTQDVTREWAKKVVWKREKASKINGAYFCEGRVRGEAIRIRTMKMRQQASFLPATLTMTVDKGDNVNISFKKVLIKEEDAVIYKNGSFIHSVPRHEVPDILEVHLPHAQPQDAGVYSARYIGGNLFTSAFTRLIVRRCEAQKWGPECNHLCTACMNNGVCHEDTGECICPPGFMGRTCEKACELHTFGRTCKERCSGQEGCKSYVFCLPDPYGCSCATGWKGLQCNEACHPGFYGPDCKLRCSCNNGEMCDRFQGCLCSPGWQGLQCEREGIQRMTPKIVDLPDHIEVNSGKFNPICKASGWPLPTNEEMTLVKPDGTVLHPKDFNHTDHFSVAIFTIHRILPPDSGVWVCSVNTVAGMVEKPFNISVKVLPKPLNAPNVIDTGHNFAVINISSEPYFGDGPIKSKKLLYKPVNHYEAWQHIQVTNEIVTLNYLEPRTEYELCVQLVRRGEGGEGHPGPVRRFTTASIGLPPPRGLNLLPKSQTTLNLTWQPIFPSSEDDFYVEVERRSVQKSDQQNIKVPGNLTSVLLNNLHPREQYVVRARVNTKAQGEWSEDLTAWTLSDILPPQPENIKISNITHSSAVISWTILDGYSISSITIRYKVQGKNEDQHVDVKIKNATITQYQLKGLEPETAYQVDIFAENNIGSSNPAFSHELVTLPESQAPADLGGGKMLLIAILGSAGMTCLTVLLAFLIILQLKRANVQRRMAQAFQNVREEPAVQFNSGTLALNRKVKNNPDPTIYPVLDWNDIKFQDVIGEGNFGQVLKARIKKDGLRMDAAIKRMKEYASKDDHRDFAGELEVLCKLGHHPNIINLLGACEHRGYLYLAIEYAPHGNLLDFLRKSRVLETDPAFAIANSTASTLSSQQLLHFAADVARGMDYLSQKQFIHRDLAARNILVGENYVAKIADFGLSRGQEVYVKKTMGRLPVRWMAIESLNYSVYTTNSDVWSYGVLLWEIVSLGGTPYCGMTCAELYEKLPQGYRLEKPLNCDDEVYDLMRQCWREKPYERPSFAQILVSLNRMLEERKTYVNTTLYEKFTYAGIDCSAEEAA

[3] = test system: MAPK (Erk2); experiment: MAPK phosphorylation ELISA in HUVEC; type: cell-based, human; conditions: HUVEC stimulation
Experimental: HUVECs were cultured as above. Lyates were prepared in (1 mM EDTA, 0.5% Triton X-100, 6M urea, 5 mM NaF, 100 uM PMSF, 25 mM sodium pyrophosphate, 1 mM sodium orthovanadate, pH 7.2-7.4, 1× cOmplete™ mini EDTA-free protease inhibitor). BCA protein concentration kit was used to measure protein concentration of each lysate as per manufacturer's instructions (Thermo Scientific). Samples were subjected to ELISAs that measured phosphorylated MAPK and total MAPK levels according to the manufacturer's protocol (R&D Systems). 20 μg or 10 μg of protein from each sample was loaded in duplicate for phosphorylated MAPK and total MAPK readings respectively. Phosphorylated MAPK:total MAPK ratios were determined for each sample. The level of MAPK phosphorylation for all treatment groups were then normalized to that of the no treatment group (NT, EBM only) in each experiment.

[4] = molecular target: T3, Tie2 receptor (Mus musculus, UniProt Q02858); experiment: Tie2 phosphorylation ELISA in primary mouse lung microvascular endothelial cells (MLMVEC); type: cell-based
T3 construct: host or cells: primary mouse lung microvascular endothelial cells (MLMVEC)
T3 sequence (Q02858 23-1122): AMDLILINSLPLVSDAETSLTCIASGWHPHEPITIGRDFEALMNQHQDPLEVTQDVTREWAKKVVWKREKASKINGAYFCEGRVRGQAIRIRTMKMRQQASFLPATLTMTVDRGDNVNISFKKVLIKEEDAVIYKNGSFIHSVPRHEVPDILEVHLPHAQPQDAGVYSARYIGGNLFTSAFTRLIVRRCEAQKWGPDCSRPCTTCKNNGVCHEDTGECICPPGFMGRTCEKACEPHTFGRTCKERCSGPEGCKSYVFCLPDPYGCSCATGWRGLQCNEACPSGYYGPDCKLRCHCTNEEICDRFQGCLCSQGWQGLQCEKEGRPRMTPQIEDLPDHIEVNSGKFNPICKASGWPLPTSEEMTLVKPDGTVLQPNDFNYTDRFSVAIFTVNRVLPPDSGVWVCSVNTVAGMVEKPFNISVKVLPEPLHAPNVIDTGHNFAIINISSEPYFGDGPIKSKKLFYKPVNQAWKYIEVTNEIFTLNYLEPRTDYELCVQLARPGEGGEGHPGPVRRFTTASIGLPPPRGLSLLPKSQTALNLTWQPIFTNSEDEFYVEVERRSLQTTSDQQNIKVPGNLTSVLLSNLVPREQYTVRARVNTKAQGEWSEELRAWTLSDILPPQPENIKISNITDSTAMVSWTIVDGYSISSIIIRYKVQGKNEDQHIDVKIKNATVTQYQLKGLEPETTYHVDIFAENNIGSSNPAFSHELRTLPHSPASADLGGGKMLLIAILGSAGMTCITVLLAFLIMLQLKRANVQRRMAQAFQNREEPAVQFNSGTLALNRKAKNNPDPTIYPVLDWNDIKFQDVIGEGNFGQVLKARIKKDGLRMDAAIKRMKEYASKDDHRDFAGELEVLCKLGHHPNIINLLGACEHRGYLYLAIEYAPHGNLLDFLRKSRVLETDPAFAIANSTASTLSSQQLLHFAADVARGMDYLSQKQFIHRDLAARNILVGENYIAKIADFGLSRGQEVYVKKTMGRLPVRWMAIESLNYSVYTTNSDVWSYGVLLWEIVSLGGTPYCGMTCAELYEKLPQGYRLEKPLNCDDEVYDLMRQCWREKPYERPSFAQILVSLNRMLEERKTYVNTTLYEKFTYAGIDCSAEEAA
Experimental: Primary mouse lung endothelial cells (Cell Biologics) were seeded on 100 mm tissue culture plates in complete endothelial basal media (EBM)(Lonza) supplemented with ‘EGM single quots’ (Lonza). […] Following the 15 minute stimulation, cells were placed on ice and washed twice in ice cold PBS. Cell lysates were prepared for use in IC12 lysis buffer (1% NP-40, 20 mM Tris (pH 8.0), 137 mM NaCl, 10% Glycerol, 2 mM EDTA, 1 mM activated sodium orthovanadate). BCA protein concentration kit was used to measure protein concentration of each lysate as per manufacturer's instructions (Thermo Scientific). Samples were subjected to ELISAs that measured phosphorylated Tie2 and total Tie2 levels according to the manufacturer's protocol (mouse Tie2, R&D Systems). 50 μg or 5 μg of protein from each sample was loaded in triplicate for phosphorylated Tie2 and total Tie2 readings respectively. Phosphorylated Tie2:total Tie2 ratios were determined for each sample. The level of Tie2 phosphorylation for all treatment groups was then normalized to that of the no treatment group (NT, complete EBM only) in each experiment.

[5] = test system: Influenza A virus HKx31 (H3N2); type: in vivo, C57BL/6J mice; conditions: for overall survival of infected mice: ip
[6] = Pharmacokinetic analysis after intravenous bolus in rats (plasma ELISA); type: in vivo, male Sprague Dawley rats
Experimental: Indicated amounts (ug/kg) of parental Vasculotide and MPA-Br were intravenously administered via bolus injection to male Sprague Dawley rats. […] The 120 ug/kg dose provided the greatest sensitivity of detection in these studies and as such, PK measures presented pertain to this particular dose level. […] MPA-Br PK was evaluated in a multi-dose (MD) intravenous setting at 120 ug/kg once every 24 hours for three consecutive days.

[7] = test system: histamine-induced vascular leakage; experiment: Cutaneous histamine challenge, Evans blue dye extravasation; type: in vivo, male FVB mice; conditions: for vascular leakage (extravassation of Evans blue dye) vs vehicle treated mice: prophylactic IP dose one hour prior to cutaneous histamine challenge
Description: 10-week old male FVB mice were purchased from Jackson Laboratories. Mice were housed in a Vivarium on a standard light:dark cycle and were given free access to food and water. On day 0 mice were anesthetized with isoflurane and the entire dorsal area was shaved with an electric shaver. Residual hair was removed via application of depilatory cream. Residual cream was removed with sterile gauze and water. […] Immediately following Evans blue dye administration, and while still under anesthesia, a single PBS injection (dorsal, intradermal, 50 ul) and three equally spaced histamine injections (dorsal, intradermal, 1.25 ug contained in 50 ul) were applied. Once the intradermal injections were complete, the mice were removed from anesthesia and were placed back into their housing cages for 25 minutes.
Cardiac transperfusion After 25 minutes of exposure to histamine the mice were placed under anesthesia with an appropriate volume of 2.5% avertin (100 ul/10 g body weight via intraperitoneal injection). Once a deep plane of anesthesia was produced the mice were place and secured in a supine position, the chest was surgically opened, the heart was exposed and a catheter terminating in a 23 gauge needle was inserted into the left ventricle. Once the catheter was securely in place, a cut in the right atria was performed and 25 ml of cold PBS was delivered, via the catheter at 100 mmHg to flush out all intravascular Evans blue dye. Once a mouse was effectively perfused the dorsal skin was surgically removed. Four, 12 mm skin biopsies were collected (1PBS, 3 histamine) for each mouse using a standardized skin punch. In all cases, the biopsy that received PBS served as a baseline control for that individual mouse.
Quantification of Evans blue dye extravassation Skin biopsies were placed in labelled tubes and placed in a 60 degree Celsius oven for 16 hrs to removed all moisture. […] An Evans blue dye standard curve encompassing high and low experimental data points was constructed such that the amount of Evans blue dye extravassation (ug/g of skin) could be calculated.

[8] = test system: HUVEC; experiment: Thrombin- and TNF-α-induced HUVEC destabilisation, impedance (xCELLigence RTCA); type: cell-based, human; conditions: for total AUC normalised to vehicle control treatment: equivalent to CI for vehicle control cells
[9] = test system: HUVEC; experiment: COVID-19 patient serum induced HUVEC integrity destabilization, impedance (xCELLigence RTCA); type: cell-based, human
[10] = test system: Influenza A virus HKx31 (H3N2); conditions: 100 ng/mouse/day; Sugiyama M G et al, 2015; cited from earlier work
[11] = molecular target: T4, Tie2 receptor (Rattus norvegicus, UniProt A0A8I5ZW61); experiment: Tie2 phosphorylation ELISA in primary rat glomerular endothelial cells; type: cell-based; conditions: positive control
T4 construct: host or cells: primary rat glomerular endothelial cells
T4 sequence (A0A8I5ZW61 20-1121): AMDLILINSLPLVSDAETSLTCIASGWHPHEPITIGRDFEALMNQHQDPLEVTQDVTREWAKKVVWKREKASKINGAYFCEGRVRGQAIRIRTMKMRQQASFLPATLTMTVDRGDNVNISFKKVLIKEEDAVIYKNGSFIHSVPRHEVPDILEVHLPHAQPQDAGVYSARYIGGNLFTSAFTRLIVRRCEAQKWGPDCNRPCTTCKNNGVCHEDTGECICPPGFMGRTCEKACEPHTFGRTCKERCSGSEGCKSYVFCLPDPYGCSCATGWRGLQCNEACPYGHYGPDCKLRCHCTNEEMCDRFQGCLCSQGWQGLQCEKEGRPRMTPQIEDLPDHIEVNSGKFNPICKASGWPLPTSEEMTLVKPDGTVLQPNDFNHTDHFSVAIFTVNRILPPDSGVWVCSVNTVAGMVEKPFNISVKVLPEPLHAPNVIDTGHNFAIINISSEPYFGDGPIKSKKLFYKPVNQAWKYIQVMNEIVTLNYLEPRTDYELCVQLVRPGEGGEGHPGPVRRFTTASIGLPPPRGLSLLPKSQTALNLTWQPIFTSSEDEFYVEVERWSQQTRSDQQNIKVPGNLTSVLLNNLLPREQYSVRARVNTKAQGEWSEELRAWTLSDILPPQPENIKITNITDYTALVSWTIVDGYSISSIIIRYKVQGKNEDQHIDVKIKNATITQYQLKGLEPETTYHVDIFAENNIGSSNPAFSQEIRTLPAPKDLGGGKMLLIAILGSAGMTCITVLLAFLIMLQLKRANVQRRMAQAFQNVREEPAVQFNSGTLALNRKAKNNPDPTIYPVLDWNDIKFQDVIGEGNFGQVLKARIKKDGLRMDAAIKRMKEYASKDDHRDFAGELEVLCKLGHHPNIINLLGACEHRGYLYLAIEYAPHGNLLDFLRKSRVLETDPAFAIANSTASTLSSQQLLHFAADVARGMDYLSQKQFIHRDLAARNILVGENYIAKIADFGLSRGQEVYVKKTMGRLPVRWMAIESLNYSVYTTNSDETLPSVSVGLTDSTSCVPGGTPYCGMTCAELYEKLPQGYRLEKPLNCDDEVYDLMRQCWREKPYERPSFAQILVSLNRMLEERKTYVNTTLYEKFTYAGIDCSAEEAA
Experimental: Rat primary glomerular endothelial cells (Cell Biologics) were grown in Complete rat endothelial cell medium/w kit (Cell Biologics) in 20% O2, 5% CO2 and 37° C. humidified chamber and split 1:3 once reaching 80-90% confluency. To examine the activation of Tie2 by MPA-Br in rat kidney glomerular endothelial cells, 95-100% confluent cells were stimulated with indicated concentrations of the test agent in serum-containing media for 15 minutes. Human Ang-1 (R&D Systems) was used as positive control. Cell lysates were collected using lysis buffer IC12 (detailed above) recommended in Human phospho-Tie-2 ELISA kit (R&D Systems), tyrosine-phosphorylated Tie2 and total Tie2 were measured using ELISA (Human phospho-Tie2 and total-Tie2 ELISA kits, R&D Systems) with substitution of capture antibody validated for rat Tie2. Mouse anti-Tie2 antibody (BD Pharmingen™) and rabbit TEK polyclonal antibody (MyBioSource) were used as capture antibody in pTie2 and total Tie2 ELISA, respectively. The level of Tie2 phosphorylation for all treatment groups was then normalized to that of the no treatment group (NT, complete rat endothelial cell medium) in each experiment.

[12] = test system: Tie2 receptor; experiment: Tie2 phosphorylation ELISA in primary canine aortic endothelial cells; type: cell-based; conditions: positive control
Experimental: Canine primary aortic endothelial cells (Cell Biologics) were grown in Complete canine endothelial cell medium/w kit (Cell Biologics) in 20% O2, 5% CO2 and 37° C. humidified chamber and split 1:3 once reaching 80-90% confluency. Tie2 activation studies performed on primary cynomolgus monkey glomerular endothelial cells were performed according to approaches detailed above for the rat primary glomerular endothelial cell studies.

[13] = test system: Tie2 receptor; experiment: Tie2 phosphorylation ELISA in primary cynomolgus monkey glomerular endothelial cells; type: cell-based; conditions: positive control
Experimental: Primary cynomolgus monkey glomerular endothelial cells (Cell Biologics) were cultured according to details provided above for HMVEC^tert. Tie2 activation studies performed on primary cynomolgus monkey glomerular endothelial cells were performed according to approaches detailed above for the rat primary glomerular endothelial cell studies.

[14] = day 6, MPA-Br 200 ng/day vs parental Vasculotide 500 ng
[15] = 120 ug/kg intravenous bolus, parental Vasculotide vs MPA-Br

Molecule: MPA-Br: T7 peptide linked via 3-mercaptopropionic acid to a bromoacetimide-activated 10K PEG tetramer through a linear sulfane moiety (HHHRHSF; not fully specified (N-terminus); also: linked via 3-mercaptopropionic acid to bromoacetimide-activated 10K PEG tetramer (sulfane), site not given here)
- binding to recombinant human IgG Fc (fluorescence intensity) [1]: no dose dependent increase in fluorescence intensity; also recorded: No saturation of binding
- doses significantly activating Tie2 (pTie2/total Tie2 vs no treatment) [2]: 10-100 ng
- activation of MAPK (phosphorylated MAPK:total MAPK) [3]: downstream activation of MAPK
- fold lower concentration for statistically significant Tie2 activation vs parental Vasculotide [4]: 10 fold
- arterial oxygenation [5, 14]: superiority to parental Vasculotide
- protection from wasting (fraction of initial body weight) [5, 14]: superiority to parental Vasculotide
- activity score ([5]; mouse, in vivo): significantly improved
- all study endpoints compared to parental Vasculotide ([5]; mouse, in vivo): performed equal, or better than parental Vasculotide
- lung oxygenation (SpO2) ([5]; mouse, in vivo): significantly improved
- thermal regulation (body temperature) ([5]; mouse, in vivo): significantly improved
- overall survival of infected mice ([5]; mouse, in vivo): significantly improved overall survival
- drug accumulation, multi-dose (MD) PK vs single dose ([6]; 120 ug/kg IV once every 24 hours for three consecutive days): no drug accumulation
- clearance rate [6, 15]: similar
- volume of distribution [6, 15]: similar
- vascular leakage (extravassation of Evans blue dye) vs vehicle treated mice [7]: significantly less vascular leakage
- normalized CI overtime compared to untreated HUVEC ([8]; TNF-a challenge (0.5 ng/mL), MPA-Br 5 ng/mL): significant increase in normalized CI
- total AUC normalised to vehicle control treatment ([8]; TNF-a challenged cells, MPA-Br 5 ng/mL): statistically significant increase in normalized CI
- normalized CI overtime compared to untreated HUVEC ([8]; thrombin challenge (0.25 ng/mL), MPA-Br 0.5 to 5 ng/mL): significant increase in normalized CI
- total AUC normalised to vehicle control treatment ([8]; thrombin challenged cells, MPA-Br 0.5 to 5 ng/mL): statistically significant increase in normalized CI
- CI over time after COVID-19 serum challenge [9]: restoration of CI loss
- AUC normalised to vehicle control ([9]; COVID-19 patient sample IgM, 0.5 to 5 ng/mL MPA-Br): statistically significant increase in normalized CI
- cell index difference between cells incubated with serum+AV-001 and serum+vehicle control ([9]; COVID-19 serum (IgG8, IgM5, IgM6) compared to HD): Significant differences
- total AUC normalised to vehicle control treatment ([9]; COVID-19 serum IgG8 and IgM6 (FIG. 10D-E), both AV-001 doses): statistically significant increase in CI
- total AUC normalised to vehicle control treatment ([9]; serum HD1, high dose 5 ng/mL): statistically significant increase in normalised cell impedance

Molecule: parental Vasculotide: 10 kDa 4-armed polyethylene glycol with Tie2 binding peptides (CHHHRHSF) attached via maleimide; mimics Ang1 [reference compound]
- activation of MAPK (phosphorylated MAPK:total MAPK) [3]: downstream activation of MAPK
- activity score ([5]; mouse, in vivo): significantly improved
- lung oxygenation (SpO2) ([5]; mouse, in vivo): significantly improved
- thermal regulation (body temperature) ([5]; mouse, in vivo): significantly improved
- overall survival of infected mice ([5]; mouse, in vivo): significantly improved overall survival
- reduction of histamine-induced vascular leakage compared with MPA-Br ([7]; parental Vasculotide 500 ng/mouse vs MPA-Br at equal dose or 125 ng/mouse): performed less well
- vascular leakage (extravassation of Evans blue dye) vs vehicle treated mice [7]: significantly less vascular leakage
- survival following infection with X31 influenza [10]: ineffective at enhancing survival

B1: human recombinant Ang1: Human recombinant angiopoietin 1, positive control for Tie2 and MAPK activation (protein)
chain: SNQRRSPENSGRRYNRIQHGQCAYTFILPEHDGNCRESTTDQYNTNALQRDAPHVEPDFSSQKLQHLEHVMENYTQWLQKLENYIVENMKSEMAQIQQNAVQNHTATMLEIGTSLLSQTAEQTRKLTDVETQVLNQTSRLEIQLLENSLSTYKLEKQLLQQTNEILKIHEKNSLLEHKILEMEGKHKEELDTLKEEKENLQGLVTRQTYIIQELEKQLNRATTNNSVLQKQQLELMDTVHNLVNLCTKEGVLLKGGKREEEKPFRDCADVYQAGFNKSGIYTIYINNMPEPKKVFCNMDVNGGGWTVIQHREDGSLDFQRGWKEYKMGFGNPSGEYWLGNEFIFAITSQRQYMLRIELMDWEGNRAYSQYDRFHIGNEKQNYRLYLKGHTGTAGKQSSLILHGADFSTKDADNDNCMCKCALMLTGGWWFDACGPSNLNGMFYTAGQNHGKLNGIKWHYFKGPSYSLRSTTMMIRPLDF
- Tie2 phosphorylation compared to no treatment (NT) [11]: significant increase in baseline Tie2 phosphorylation
- Tie2 phosphorylation compared to no treatment (NT) [12]: significant increase in baseline Tie2 phosphorylation
- Tie2 phosphorylation compared to no treatment (NT) [13]: significant increase in baseline Tie2 phosphorylation
